One test deals with candidiasis. The settings on record: in vivo; cited from earlier work.
Another test relates to C. glabrata. The settings on record: some other species of Candida, particularly C. glabrata; cited from earlier work.
The next test concerns C. cruzii. The following applies: infections caused by C. cruzii; cited from earlier work.
In test [1] the test system is Cancer of the Ovary with Liver Metastasis. The test is described as follows: Antimycotic treatment of a Candida-seropositive patient, cancer of the ovary with liver metastasis. Type of test: in vivo, human. The following applies: Patient 6, Candida serological test 640; 100 mg 1 capsule a day for 30 days. The protocol:
The inventor has performed many serological tests on patients suffering from various illnesses and particularly from different types of cancer.
Patient 6: person with Cancer of the Ovary with Liver Metastasis.
The patient was treated with Diflucan, 100 mg 1 capsule a day. For 30 days

Another test deals with Psoriasis. The test is described as follows: Antimycotic treatment of a Candida-seropositive patient, psoriasis. It is filed as in vivo, human. The following applies: Patient 4, Candida serological test 640; 100 mg 1 capsule a day for 1 month. As to the method:
(§1) The inventor has performed many serological tests on patients suffering from various illnesses and particularly from different types of cancer. The inventor has shown that, in many of the patients who tested positive for Candida in the serological tests, after antimycotic treatments, a full recovery was observed, with complete disappearance of the tumours in the case of the patients affected by cancer.
Positive Candida serological test (640)
The patient was treated with Diflucan, 100 mg 1×1 capsule a day. For 1 month.

The next test concerns Breast Cancer. The test is described as follows: Antimycotic treatment of a Candida-seropositive patient, breast cancer. It is filed as in vivo, human. The settings on record: Patient 3, Candida serological test 320; capsule 100 mg, 1 caps a day for 60 days. As to the method:
as §1
Patient 3: person with Breast Cancer
The patient was treated with Orungal, capsule 100 mg, 1×1 caps a day for 60 days.

A further test concerns Ulcerative Colitis. The test is described as follows: Antimycotic treatment of a Candida-seropositive patient, ulcerative colitis. The following applies: Patient 5, serological test 320; 100 mg 1 caps a day for 28 days. Type of test: in vivo, human. The protocol: as §1
Patient 5: Ulcerative Colitis.
Positive serological test (320).
The patient was treated with Orungal, 100 mg 1×1 caps a day, for 28 days.

Another test relates to Prostate Cancer. Description: Antimycotic treatment of Candida-seropositive patients, prostate cancer. It is filed as in vivo, human.
Text: as §1
Patient 2: person with Prostate Cancer.
Positive for Candida serological test (640)
The patient was treated with Orungal, 100 mg capsules, 1×1 caps a day for 1 month.
Patient 7: person with Prostate Cancer
Positive candida serological test (320).
The patient was treated with Nizoral (1 tablet 2× day for two weeks, then 1 tablet a day for 30 days.

Test [2] has as its system tumour of the myoma of the uterus. Description: Antimycotic treatment of a Candida-seropositive patient, tumour of the myoma of the uterus. It is filed as in vivo, human. The settings on record: Patient 1, Candida rate 640; 1 tablet 2x day for two weeks, then 1 tablet a day for 30 days.
Text: as §1
A patient, hospitalised, suffering from a tumour of the myoma of the uterus.
The patient was treated with Nizoral (1 tablet 2× day for two weeks, then 1 tablet a day for 30 days).

For the molecule `OC(Cn1cncn1)(Cn1cncn1)c1ccc(F)cc1F` [Fluconazole, fluconazole], the “Effectiveness in candidiasis compared with amphotericin B” value with candidiasis was “as effective as amphotericin B”. The “Sensitivity compared with C. albicans” value in the test with C. glabrata is on record as “less sensitive”. For the same molecule, the “Response of infections to treatment” value with C. cruzii was “do not respond”.
For `OC(Cn1cncn1)(Cn1cncn1)c1ccc(F)cc1F` [Diflucan], the Result of treatment entry in [1] is listed as “Complete recovery with disappearance of the tumours”; in the test with Psoriasis it was “Complete recovery at the end of the treatment”.
For the molecule `CCC(C)n1ncn(-c2ccc(N3CCN(c4ccc(OCC5COC(Cn6cncn6)(c6ccc(Cl)cc6Cl)O5)cc4)CC3)cc2)c1=O` (stereo not shown) [Orungal], the Result of treatment entry is given as “Complete recovery at the end of the treatment” in the test with Breast Cancer; “Complete recovery at the end of the treatment” in the test on Ulcerative Colitis; “Complete recovery at the end of the treatment with disappearance of the tumour” with Prostate Cancer (Patient 2, Candida serological test 640, 100 mg capsules, 1 caps a day for 1 month).
With `CC(=O)N1CCN(c2ccc(OCC3COC(Cn4ccnc4)(c4ccc(Cl)cc4Cl)O3)cc2)CC1` (stereo not shown) [Nizoral], the “Result of treatment (tumour)” value in test [2] is recorded as “Disappearance of the tumour at the end of the treatment”. Moreover, the Result of treatment entry with Prostate Cancer (Patient 7, Candida serological test 320, 1 tablet 2x day for two weeks, then 1 tablet a day for 30 days) is listed as “Complete recovery”.

(Values after patent US8871226B2, “Methods and compositions for the treatment and diagnosis of cancer” (Hafid Mahboubi, priority 2003, dated 2014).)
